In patent US20100160321A1, “IMIDAZOLINONE AND HYDANTOINE DERIVATIVES AS NOVEL INHIBITORS OF HISTONE DEACETYLASE” (priority 2005, published 2010):

Legend:
[1] = biological target: histone deacetylase (HeLa nuclear extracts); assay: In vitro assay for inhibition of histone deacetylase (HDAC Fluorescent Activity Assay, Fluor de Lys); type: biochemical; conditions: HeLa nuclear extracts 60 μg/ml, 75 μM Fluor de Lys substrate, example C.1
Text: The in vitro assay for inhibition of histone deacetylase (see example C.1) measures the inhibition of HDAC enzymatic activity obtained with the compounds of formula (I).
The HDAC Fluorescent Activity Assay/Drug Discovery Kit of Biomol (cat.No: AK-500-0001) was used. The HDAC Fluorescent Activity Assay is based on the Fluor de Lys (Fluorogenic Histone deAcetylase Lysyl) substrate and developer combination. The Fluor de Lys substrate, comprises an acetylated lysine side chain. Deacetylation of the substrate sensitizes the substrate so that, in the second step, treatment with the Fluor de Lys developer produces a fluorophore.
HeLa nuclear extracts (supplier: Biomol) were incubated at 60 μg/ml with 75 μM of substrate. The Fluor de Lys substrate was added in a buffer containing 25 mM Tris, 137 mM NaCl, 2.7 mM KCl and 1 mM MgCl2.6H2O at pH 7.4. After 30 min, 1 volume of the developer was added. The fluorophore was excited with 355 nm light and the emitted light (450 nm) was be detected on a fluorometric plate reader.
For each experiment, controls (containing HeLa nuclear extract and buffer), a blank incubation (containing buffer but no HeLa nuclear extract) and samples (containing compound dissolved in DMSO and further diluted in buffer and HeLa nuclear extract) were run in parallel. In first instance, compounds were tested at a concentration of 10^−5M. […] All sample were tested 4 times. In each test the blank value was subtracted from both the control and the sample values. The control sample represented 100% of substrate deactylation. For each sample the fluorescence was expressed as a percentage of the mean value of the controls. […] Herein the effects of test compounds are expressed as pIC50 (the negative log value of the IC50-value) (see Table F-3).

[2] = tested on: human A2780 ovarian carcinoma cells; assay: Antiproliferative activity on A2780 cells (MTT); type: cell-based; conditions: 96 h, four days of incubation, example C.2, read-out: Cellular activity pIC50 (converted)
Procedure: All compounds tested were dissolved in DMSO and further dilutions were made in culture medium. Final DMSO concentrations never exceeded 0.1% (v/v) in cell proliferation assays. Controls contained A2780 cells and DMSO without compound and blanks contained DMSO but no cells. MTT was dissolved at 5 mg/ml in PBS.
Cells were routinely kept as monolayer cultures at 37° C. in a humidified 5% CO2 atmosphere. Cells were passaged once a week using a trypsin/EDTA solution at a split ratio of 1:40. All media and supplements were obtained from Life Technologies. Cells were free of mycoplasma contamination as determined using the Gen-Probe Mycoplasma Tissue Culture kit (supplier: BioMerieux).
Cells were seeded in NUNC™ 96-well culture plates (Supplier: Life Technologies) and allowed to adhere to the plastic overnight. Densities used for plating were 1500 cells per well in a total volume of 200 μl medium. After cell adhesion to the plates, medium was changed and drugs and/or solvents were added to a final volume of 200 μl. Following four days of incubation, medium was replaced by 200 μl fresh medium and cell density and viability was assessed using an MTT-based assay. To each well, 25 μl MTT solution was added and the cells were further incubated for 2 hours at 37° C. The medium was then carefully aspirated and the blue MTT-formazan product was solubilized by addition of 25 μl glycine buffer followed by 100 μl of DMSO. […] Within an experiment, the results for each experimental condition are the mean of 3 replicate wells. […] For each experiment, controls (containing no drug) and a blank incubation (containing no cells or drugs) were run in parallel. The blank value was subtracted from all control and sample values. For each sample, the mean value for cell growth (in absorbance units) was expressed as a percentage of the mean value for cell growth of the control. […] Herein the effects of test compounds are expressed as pIC50 (the negative log value of the IC50-value)(see Table F-3).

Row | Enzyme activity pIC50 [1] | IC50 [2] [nM] | Compound | melting point [°C]
1 | 7.1 | 1000 | O=C(NO)c1cnc(N2CCC(CN3CCN(c4cccc5ccccc45)C3=O)CC2)nc1 [Compound 1] | –
2 | 7.5 | 126 | O=C(NO)c1cnc(N2CCC(Cn3ccn(-c4ccc(Oc5ccccc5)cc4)c3=O)CC2)nc1 [Compound 2] | –
3 | 7.8 | 79.4 | O=C(NO)c1cnc(N2CCC(Cn3ccn(-c4ccc(-c5ccccc5)cc4)c3=O)CC2)nc1 [Compound 3] | –
4 | 7.6 | 631 | O=C(NO)c1cnc(N2CCC(Cn3ccn(-c4ccc(F)cc4)c3=O)CC2)nc1 [Compound 4] | –
5 | 7.2 | 501 | CC1C(=O)N(c2ccc(-c3ccccc3)cc2)C(=O)N1CC1CCN(c2ncc(C(=O)NO)cn2)CC1 (centres unmarked) [Compound 6] | 169
6 | 7.2 | 2510 | O=C(NO)c1cnc(N2CCC(CN3CCN(c4ccc(Oc5ccccc5)cc4)C3=O)CC2)nc1 [Compound 10] | –
7 | 7.3 | 631 | O=C(NO)c1cnc(N2CCC(CN3CCN(c4ccc(-c5ccccc5)cc4)C3=O)CC2)cn1 [Compound 11] | –
8 | 7.5 | 631 | O=C(NO)c1cnc(N2CCOC(Cn3ccn(-c4ccccc4)c3=O)C2)nc1 (centres unmarked) [Compound 12] | –
9 | 7.3 | 794 | COc1ccc(-n2ccn(CC3CN(c4ncc(C(=O)NO)cn4)CCO3)c2=O)cc1OC (centres unmarked) [Compound 13] | –
10 | 6.8 | 6310 | Cc1cccc(-n2ccn(CC3CN(c4ncc(C(=O)NO)cn4)CCO3)c2=O)c1 (centres unmarked) [Compound 14] | –
11 | 7.3 | 1260 | O=C(NO)c1cnc(N2CCOC(Cn3ccn(-c4cccc(C(F)(F)F)c4)c3=O)C2)nc1 (centres unmarked) [Compound 15] | –
12 | 7.2 | 1260 | COc1cc(-n2ccn(CC3CN(c4ncc(C(=O)NO)cn4)CCO3)c2=O)cc(OC)c1OC (centres unmarked) [Compound 16] | –
13 | 7.2 | 1260 | COc1ccc(-n2ccn(CC3CN(c4ncc(C(=O)NO)cn4)CCO3)c2=O)cc1 (centres unmarked) [Compound 18] | –
14 | 7.3 | 501 | O=C(NO)c1cnc(N2CCOC(Cn3ccn(-c4ccc(F)cc4)c3=O)C2)nc1 (centres unmarked) [Compound 20] | –
15 | 7.4 | 501 | O=C(NO)c1cnc(N2CCOC(Cn3ccn(-c4cccc(F)c4)c3=O)C2)nc1 (centres unmarked) [Compound 21] | –
16 | 7.2 | 5010 | Cc1ccc(-n2ccn(CC3CN(c4ncc(C(=O)NO)cn4)CCO3)c2=O)cc1 (centres unmarked) [Compound 22] | –
17 | 7.2 | 1260 | O=C(NO)c1cnc(N2CCC(Cn3ccn(-c4cccc(C(F)(F)F)c4)c3=O)CC2)nc1 [Compound 23] | –
18 | 7.4 | 631 | O=C(NO)c1cnc(N2CCC(Cn3ccn(-c4ccc5c(c4)OCCOCCOCCOCCO5)c3=O)CC2)nc1 [Compound 24] | –
19 | 7.4 | 631 | COc1cc(-n2ccn(CC3CCN(c4ncc(C(=O)NO)cn4)CC3)c2=O)cc(OC)c1OC [Compound 25] | –
20 | 7.4 | 501 | COc1cc(OC)cc(-n2ccn(CC3CCN(c4ncc(C(=O)NO)cn4)CC3)c2=O)c1 [Compound 26] | –
21 | 7.5 | 631 | COc1ccc(-n2ccn(CC3CCN(c4ncc(C(=O)NO)cn4)CC3)c2=O)cc1OC [Compound 27] | –
22 | 7.6 | 631 | COc1ccc(-n2ccn(CC3CCN(c4ncc(C(=O)NO)cn4)CC3)c2=O)cc1 [Compound 28] | –
23 | 7.7 | 631 | COc1cccc(-n2ccn(CC3CCN(c4ncc(C(=O)NO)cn4)CC3)c2=O)c1 [Compound 29] | –
24 | 7.5 | 631 | O=C(NO)c1cnc(N2CCC(Cn3ccn(-c4cccc(F)c4)c3=O)CC2)nc1 [Compound 30] | –
25 | 7.7 | 631 | Cc1ccc(-n2ccn(CC3CCN(c4ncc(C(=O)NO)cn4)CC3)c2=O)cc1 [Compound 31] | –
26 | 6.6 | 1000 | O=C(NO)c1cnc(N2CCC(Cn3ccn(-c4ccccc4)c3=O)CC2)nc1 [Compound 32] | –
27 | 7.9 | 501 | Cc1[nH]c2ccccc2c1CCn1ccn(CC2CCN(c3ncc(C(=O)NO)cn3)CC2)c1=O [Compound 35] | 246

Row | Compound | Enzyme activity pIC50 [1] | IC50 [2] [nM] | melting point [°C]
28 | N#Cc1ccc(N2C(=O)C(c3ccccc3)N(CC3CCN(c4ncc(C(=O)NO)cn4)CC3)C2=O)cc1 (centres unmarked) [Compound 5] | 7.1 | 631 | 187
29 | CC1C(=O)N(c2ccc(C#N)cc2)C(=O)N1CC1CCN(c2ncc(C(=O)NO)cn2)CC1 (centres unmarked) [Compound 36] | 7.0 | 1580 | 135
